Measured values published in ChEMBL document CHEMBL1201862, “PubChem BioAssay data set” (2004).
Active and inactive are the calls of the source.

What was measured:
[1] = target: T1, Sentrin-specific protease 8 (Homo sapiens, UniProt Q96LD8); test: SENP8 protease inhibitors, SAR follow-up, biochemical, luminescence (AID 504501); type: functional
T1 sequence (Q96LD8 whole entry): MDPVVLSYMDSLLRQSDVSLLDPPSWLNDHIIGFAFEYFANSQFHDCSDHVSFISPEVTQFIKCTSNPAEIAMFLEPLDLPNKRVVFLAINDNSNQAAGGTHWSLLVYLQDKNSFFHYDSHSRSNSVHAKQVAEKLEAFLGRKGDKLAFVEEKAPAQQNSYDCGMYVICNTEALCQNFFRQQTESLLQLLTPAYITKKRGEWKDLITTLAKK

[2] = target: T2, Sentrin-specific protease 7 (Homo sapiens, UniProt Q9BQF6); test: SENP7 protease inhibitors, SAR follow-up, biochemical, luminescence, set 2 (AID 588600); type: functional
T2 sequence (Q9BQF6 whole entry): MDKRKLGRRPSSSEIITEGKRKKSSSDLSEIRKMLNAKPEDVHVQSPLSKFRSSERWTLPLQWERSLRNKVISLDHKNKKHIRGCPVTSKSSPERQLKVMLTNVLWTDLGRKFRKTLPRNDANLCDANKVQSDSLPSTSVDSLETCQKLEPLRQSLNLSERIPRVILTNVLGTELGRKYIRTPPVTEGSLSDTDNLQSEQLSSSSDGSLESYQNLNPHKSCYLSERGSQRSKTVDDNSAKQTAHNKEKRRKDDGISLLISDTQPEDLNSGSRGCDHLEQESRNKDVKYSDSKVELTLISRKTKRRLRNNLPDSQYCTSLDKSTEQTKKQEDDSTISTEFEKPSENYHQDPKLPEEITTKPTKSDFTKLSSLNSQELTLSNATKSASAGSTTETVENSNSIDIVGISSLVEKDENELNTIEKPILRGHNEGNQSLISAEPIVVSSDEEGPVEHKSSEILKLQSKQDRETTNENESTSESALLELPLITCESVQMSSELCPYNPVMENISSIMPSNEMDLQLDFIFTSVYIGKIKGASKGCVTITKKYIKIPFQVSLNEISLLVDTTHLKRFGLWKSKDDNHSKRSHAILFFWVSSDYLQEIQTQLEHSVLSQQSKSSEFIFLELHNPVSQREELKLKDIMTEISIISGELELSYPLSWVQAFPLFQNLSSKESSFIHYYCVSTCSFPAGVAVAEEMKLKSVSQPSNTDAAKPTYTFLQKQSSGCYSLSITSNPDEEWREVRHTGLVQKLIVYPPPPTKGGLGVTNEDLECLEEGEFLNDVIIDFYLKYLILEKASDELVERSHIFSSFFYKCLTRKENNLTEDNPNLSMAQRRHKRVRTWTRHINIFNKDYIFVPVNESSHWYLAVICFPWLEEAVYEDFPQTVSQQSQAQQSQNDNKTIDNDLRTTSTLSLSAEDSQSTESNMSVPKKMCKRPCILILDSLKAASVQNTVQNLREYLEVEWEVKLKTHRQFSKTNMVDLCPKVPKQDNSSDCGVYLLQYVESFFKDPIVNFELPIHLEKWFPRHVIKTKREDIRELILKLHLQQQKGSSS

[3] = target: T3, Sentrin-specific protease 6 (Homo sapiens, UniProt Q9GZR1); test: SAR Analysis of small molecule inhibitors of Sentrin-specific protease 6 (SENP6) using a Luminescent assay. [Related pubchem assays (depositor defined):AID2582, AID2599]; type: functional
T3 sequence (Q9GZR1 whole entry): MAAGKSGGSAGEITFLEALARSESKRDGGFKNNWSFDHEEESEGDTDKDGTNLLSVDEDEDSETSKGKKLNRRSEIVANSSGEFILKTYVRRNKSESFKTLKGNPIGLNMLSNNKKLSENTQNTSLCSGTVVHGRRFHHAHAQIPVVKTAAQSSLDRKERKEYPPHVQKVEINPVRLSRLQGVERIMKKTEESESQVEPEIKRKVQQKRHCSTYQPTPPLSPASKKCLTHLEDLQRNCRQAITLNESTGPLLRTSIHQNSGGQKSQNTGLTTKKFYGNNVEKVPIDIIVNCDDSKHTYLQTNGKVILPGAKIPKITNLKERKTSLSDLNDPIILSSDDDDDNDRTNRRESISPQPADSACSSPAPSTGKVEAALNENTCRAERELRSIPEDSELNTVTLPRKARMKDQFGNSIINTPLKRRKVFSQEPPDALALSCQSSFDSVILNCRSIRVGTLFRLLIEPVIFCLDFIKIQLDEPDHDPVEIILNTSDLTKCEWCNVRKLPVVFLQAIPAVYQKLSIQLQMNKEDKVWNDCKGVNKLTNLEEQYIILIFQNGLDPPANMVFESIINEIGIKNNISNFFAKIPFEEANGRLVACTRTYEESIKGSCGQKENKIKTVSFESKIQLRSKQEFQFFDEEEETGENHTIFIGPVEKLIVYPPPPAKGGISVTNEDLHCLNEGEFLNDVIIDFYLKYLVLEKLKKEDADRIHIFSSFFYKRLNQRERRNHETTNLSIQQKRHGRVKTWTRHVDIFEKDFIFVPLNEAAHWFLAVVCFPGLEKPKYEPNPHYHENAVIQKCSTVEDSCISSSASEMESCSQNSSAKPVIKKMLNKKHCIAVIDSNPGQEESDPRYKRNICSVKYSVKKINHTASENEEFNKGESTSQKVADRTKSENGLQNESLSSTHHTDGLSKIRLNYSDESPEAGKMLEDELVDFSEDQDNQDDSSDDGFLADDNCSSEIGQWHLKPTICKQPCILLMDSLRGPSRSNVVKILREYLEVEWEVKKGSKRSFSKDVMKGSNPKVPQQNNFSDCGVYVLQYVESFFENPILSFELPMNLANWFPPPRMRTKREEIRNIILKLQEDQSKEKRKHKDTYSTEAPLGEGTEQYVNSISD

[4] = target: T1, Sentrin-specific protease 8; test: SENP8 protease inhibitors, SAR follow-up, biochemical, luminescence, set 2 (AID 588601); type: functional
[5] = target: T4, Caspase-3 (Homo sapiens, UniProt P42574); test: SAR Analysis of small molecule inhibitors of Sentrin-specific proteases (SENPs) using a Caspase-3 Selectivity assay. [Related pubchem assays (depositor defined):AID2540, AID2599, AID434973, AID489001]; type: functional
T4 sequence (P42574 whole entry): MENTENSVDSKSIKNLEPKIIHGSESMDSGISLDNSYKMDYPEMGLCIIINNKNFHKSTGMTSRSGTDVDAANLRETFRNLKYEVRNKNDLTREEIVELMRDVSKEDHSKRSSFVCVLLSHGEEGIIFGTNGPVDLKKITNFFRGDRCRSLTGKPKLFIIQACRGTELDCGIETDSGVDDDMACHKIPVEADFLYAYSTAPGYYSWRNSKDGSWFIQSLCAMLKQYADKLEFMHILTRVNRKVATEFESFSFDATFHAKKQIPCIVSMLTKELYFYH

[6] = target: T2, Sentrin-specific protease 7; test: SENP7 protease inhibitors, SAR follow-up, biochemical, luminescence (AID 504497); type: functional
[7] = target: T4, Caspase-3; test: caspase-3 inhibitors as off-family protease, SAR follow-up, selectivity assay for SENP protease inhibitor project, biochemical, luminescence, set 2 (AID 588599); type: functional
[8] = target: T3, Sentrin-specific protease 6; test: SENP6 protease inhibitors, SAR follow-up, biochemical, luminescence, set 2 (AID 588598); type: functional
[9] = target: T5, Low molecular weight phosphotyrosine protein phosphatase (Homo sapiens, UniProt P24666); type: functional; conditions: read-out: IC50_Mean
T5 sequence (P24666 whole entry): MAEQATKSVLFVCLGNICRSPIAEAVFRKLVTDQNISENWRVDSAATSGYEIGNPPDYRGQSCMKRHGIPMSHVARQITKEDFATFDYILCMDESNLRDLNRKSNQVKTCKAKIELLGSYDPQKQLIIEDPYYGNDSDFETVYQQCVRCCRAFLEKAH

[10] = target: T5, Low molecular weight phosphotyrosine protein phosphatase; type: functional; conditions: read-out: IC50_Mean; remark: listed apart in the source
[11] = target: Glycogen synthase kinase-3 beta (Homo sapiens, UniProt P49841); test: Inhibition of Human GSK-3 beta Activity Measured in Biochemical System Using Microfluidics - 2063-05_Inhibitor_Dose_DryPowder_Activity_Set2. [Related pubchem assays (depositor defined):AID2709]
Glycogen synthase kinase-3 beta, sequence (P49841 whole entry): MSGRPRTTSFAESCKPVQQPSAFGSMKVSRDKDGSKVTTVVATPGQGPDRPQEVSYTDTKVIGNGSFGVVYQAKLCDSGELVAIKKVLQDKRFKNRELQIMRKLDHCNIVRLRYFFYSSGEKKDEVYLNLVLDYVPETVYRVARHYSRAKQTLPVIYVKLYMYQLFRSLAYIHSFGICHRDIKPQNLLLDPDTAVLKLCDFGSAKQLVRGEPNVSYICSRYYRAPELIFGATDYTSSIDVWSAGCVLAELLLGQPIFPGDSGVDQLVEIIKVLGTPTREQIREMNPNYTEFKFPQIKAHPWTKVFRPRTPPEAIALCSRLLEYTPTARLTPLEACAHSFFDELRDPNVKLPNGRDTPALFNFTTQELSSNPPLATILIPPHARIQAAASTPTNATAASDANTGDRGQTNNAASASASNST

[12] = cells; type: functional
[13] = target: Glycogen synthase kinase-3 alpha (Homo sapiens, UniProt P49840); test: Inhibition of Human GSK-3 alpha Activity Measured in Biochemical System Using Microfluidics - 2063-06_Inhibitor_Dose_DryPowder_Activity_Set2. [Related pubchem assays (depositor defined):AID2709]
Glycogen synthase kinase-3 alpha, sequence (P49840 whole entry): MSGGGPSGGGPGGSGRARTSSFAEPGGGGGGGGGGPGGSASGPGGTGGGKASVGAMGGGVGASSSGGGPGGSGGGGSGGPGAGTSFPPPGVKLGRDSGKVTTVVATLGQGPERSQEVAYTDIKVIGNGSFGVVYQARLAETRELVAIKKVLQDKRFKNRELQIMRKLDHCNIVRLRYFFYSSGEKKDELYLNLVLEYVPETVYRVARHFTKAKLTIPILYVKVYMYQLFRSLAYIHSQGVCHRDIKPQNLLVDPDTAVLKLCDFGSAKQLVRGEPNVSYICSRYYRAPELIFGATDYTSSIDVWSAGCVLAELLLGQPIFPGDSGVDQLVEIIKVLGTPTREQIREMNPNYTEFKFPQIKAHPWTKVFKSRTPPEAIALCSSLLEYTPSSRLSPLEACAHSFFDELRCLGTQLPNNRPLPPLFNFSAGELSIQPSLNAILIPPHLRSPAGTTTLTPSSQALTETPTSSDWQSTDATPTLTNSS

[14] = target: Sphingosine 1-phosphate receptor 2 (Homo sapiens, UniProt O95136); test: Late-stage fluorescence-based dose-response cell-based counterscreen assay to identify agonists of the Sphingosine 1-Phosphate Receptor 3 (S1P3): Sphingosine 1-Phosphate Receptor 2 (S1P2) agonist assay.; type: functional
Sphingosine 1-phosphate receptor 2, sequence (O95136 whole entry): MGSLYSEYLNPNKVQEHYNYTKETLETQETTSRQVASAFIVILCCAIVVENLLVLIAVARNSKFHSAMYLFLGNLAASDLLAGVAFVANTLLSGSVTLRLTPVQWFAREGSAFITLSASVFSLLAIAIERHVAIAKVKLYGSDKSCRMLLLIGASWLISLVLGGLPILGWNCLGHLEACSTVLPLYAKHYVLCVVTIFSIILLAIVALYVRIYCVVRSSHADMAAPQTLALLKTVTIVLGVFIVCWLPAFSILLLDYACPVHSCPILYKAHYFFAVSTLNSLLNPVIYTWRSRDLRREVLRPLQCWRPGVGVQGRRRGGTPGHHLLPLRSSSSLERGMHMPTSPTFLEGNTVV

[15] = target: Sphingosine 1-phosphate receptor 4 (Homo sapiens, UniProt O95977); test: Late-stage fluorescence-based dose-response cell-based counterscreen assay to identify agonists of the Sphingosine 1-Phosphate Receptor 3 (S1P3): Sphingosine 1-Phosphate Receptor 4 (S1P4) agonist assay.; type: functional
Sphingosine 1-phosphate receptor 4, sequence (O95977 whole entry): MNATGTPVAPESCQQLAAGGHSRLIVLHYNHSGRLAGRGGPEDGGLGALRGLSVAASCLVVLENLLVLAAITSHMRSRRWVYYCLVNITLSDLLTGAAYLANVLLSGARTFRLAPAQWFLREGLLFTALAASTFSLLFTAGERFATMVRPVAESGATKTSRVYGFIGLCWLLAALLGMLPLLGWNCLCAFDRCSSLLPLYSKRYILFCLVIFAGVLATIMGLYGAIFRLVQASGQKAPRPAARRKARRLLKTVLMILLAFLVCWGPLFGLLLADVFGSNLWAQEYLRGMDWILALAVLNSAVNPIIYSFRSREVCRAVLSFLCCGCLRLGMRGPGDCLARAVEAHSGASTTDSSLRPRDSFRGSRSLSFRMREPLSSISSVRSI

[16] = target: 72 kDa type IV collagenase (Homo sapiens, UniProt P08253); test: Dose Response validation of uHTS RPN11 inhibitor hits using a MMP-2 Fluorescence assay.; type: functional
72 kDa type IV collagenase, sequence (P08253 whole entry): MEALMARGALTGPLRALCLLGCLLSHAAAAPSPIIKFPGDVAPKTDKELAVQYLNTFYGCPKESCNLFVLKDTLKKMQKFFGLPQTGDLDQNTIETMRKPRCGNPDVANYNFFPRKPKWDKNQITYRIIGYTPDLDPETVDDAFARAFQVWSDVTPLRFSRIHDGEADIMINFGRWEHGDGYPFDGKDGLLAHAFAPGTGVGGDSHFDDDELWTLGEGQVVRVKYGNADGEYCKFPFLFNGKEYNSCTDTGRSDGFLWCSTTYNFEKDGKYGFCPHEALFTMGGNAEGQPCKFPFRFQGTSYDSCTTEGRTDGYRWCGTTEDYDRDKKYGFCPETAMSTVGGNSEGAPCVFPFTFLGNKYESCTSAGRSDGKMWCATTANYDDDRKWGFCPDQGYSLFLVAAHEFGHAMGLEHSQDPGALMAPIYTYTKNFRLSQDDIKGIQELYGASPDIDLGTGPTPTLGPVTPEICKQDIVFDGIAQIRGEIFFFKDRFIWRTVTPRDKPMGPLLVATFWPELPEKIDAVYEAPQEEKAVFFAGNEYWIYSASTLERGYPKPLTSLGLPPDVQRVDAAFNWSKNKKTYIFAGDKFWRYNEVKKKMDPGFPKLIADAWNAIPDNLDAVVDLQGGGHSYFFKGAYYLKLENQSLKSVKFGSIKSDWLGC

[17] = inhibitors of intracellular T. cruzi replication, confirmation, NIH3T3 host cells, beta-gal luminescence (AID 2044); type: functional, cell-based;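 also: intracellular parasites grown in NIH/3T3 mouse fibroblasts as host cells; luminescent beta-galactosidase reporter signal from transgenic T. cruzi replicating inside host cells; inhibitors lower the luminescence signal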
[18] = test system: Streptococcus; test: Group A Streptococcus viability loss, dose response, counter-screen for streptokinase expression inhibitor project, luminescence, BacTiterGlo (AID 1915); type: functional, organism-based;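 also: potency for reduction of bacterial viability or growth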
[19] = cytotoxicity toward NIH3T3 fibroblasts, dose response, counter-screen, cell-based, ATP luminescence, mouse fibroblasts (AID 2010); type: functional;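 also: cells exposed to compound for about 90 hours before reading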
[20] = target: 26S proteasome non-ATPase regulatory subunit 14 (Homo sapiens, UniProt O00487); test: inhibition of proteasome subunit RPN11 – biochemical, fluorescence polarization, uHTS hits, confirmation (AID 602368); type: functional
26S proteasome non-ATPase regulatory subunit 14, sequence (O00487 whole entry): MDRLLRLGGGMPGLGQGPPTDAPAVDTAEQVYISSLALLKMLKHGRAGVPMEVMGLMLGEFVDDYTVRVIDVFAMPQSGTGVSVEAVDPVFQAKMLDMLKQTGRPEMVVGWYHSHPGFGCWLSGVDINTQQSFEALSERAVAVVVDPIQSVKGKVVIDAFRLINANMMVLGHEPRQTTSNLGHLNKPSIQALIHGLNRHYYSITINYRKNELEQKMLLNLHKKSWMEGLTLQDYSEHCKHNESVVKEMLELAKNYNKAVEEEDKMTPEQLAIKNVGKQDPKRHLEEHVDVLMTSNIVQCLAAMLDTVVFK

[21] = target: Prothrombin (Bos taurus, UniProt P00735); test: thrombin inhibition, dose response, biochemical, fluorescence polarization, uHTS hits (AID 602369); type: functional
[22] = test system: Streptococcus sp. 'group A'; test: growth inhibition of control SK(-) GAS strain, dose response, counter-screen for streptokinase expression inhibitor project, luminescence, kanamycin, BacTiterGlo, confirmation (AID 1900); type: functional, organism-based
[23] = target: T6, High affinity choline transporter 1 (Homo sapiens, UniProt Q9GZV3); test: CHT activators, dose response, cell-based, 10-point CRC, membrane potential dye (AID 602376); type: functional
T6 sequence (Q9GZV3 whole entry): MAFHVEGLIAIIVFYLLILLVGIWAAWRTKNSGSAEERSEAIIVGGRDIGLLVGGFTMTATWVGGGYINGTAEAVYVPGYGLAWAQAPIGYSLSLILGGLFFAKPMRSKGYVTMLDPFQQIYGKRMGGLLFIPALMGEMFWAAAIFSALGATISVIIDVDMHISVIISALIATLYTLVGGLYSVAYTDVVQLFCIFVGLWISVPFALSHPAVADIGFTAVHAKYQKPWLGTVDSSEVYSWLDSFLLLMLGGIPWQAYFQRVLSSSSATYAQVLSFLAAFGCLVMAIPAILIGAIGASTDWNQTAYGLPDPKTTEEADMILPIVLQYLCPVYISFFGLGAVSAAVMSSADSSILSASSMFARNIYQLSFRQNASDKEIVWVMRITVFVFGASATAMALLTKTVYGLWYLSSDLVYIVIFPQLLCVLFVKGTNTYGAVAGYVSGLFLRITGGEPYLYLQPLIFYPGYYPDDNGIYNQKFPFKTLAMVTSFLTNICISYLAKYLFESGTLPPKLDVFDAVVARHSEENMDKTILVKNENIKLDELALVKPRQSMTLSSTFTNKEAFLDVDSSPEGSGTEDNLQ

[24] = target: DNA dC->dU-editing enzyme APOBEC-3A (Homo sapiens, UniProt P31941); test: SAR analysis of small molecule inhibitors of APOBEC3A DNA Deaminase via a fluorescence-based single-stranded DNA deaminase assay.; type: functional; conditions: read-out: IC50_Mean
DNA dC->dU-editing enzyme APOBEC-3A, sequence (P31941 whole entry): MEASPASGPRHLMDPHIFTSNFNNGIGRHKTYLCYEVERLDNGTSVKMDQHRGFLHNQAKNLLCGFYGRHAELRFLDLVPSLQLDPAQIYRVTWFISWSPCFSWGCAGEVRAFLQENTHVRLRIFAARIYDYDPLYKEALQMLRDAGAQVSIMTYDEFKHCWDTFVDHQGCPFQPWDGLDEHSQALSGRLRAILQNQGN

[25] = target: DNA dC->dU-editing enzyme APOBEC-3G (Homo sapiens, UniProt Q9HC16); test: APOBEC3G deaminase inhibitors, SAR follow-up, biochemical, fluorescence, single-stranded DNA substrate (AID 602136); type: functional; conditions: read-out: IC50_Mean
DNA dC->dU-editing enzyme APOBEC-3G, sequence (Q9HC16 whole entry): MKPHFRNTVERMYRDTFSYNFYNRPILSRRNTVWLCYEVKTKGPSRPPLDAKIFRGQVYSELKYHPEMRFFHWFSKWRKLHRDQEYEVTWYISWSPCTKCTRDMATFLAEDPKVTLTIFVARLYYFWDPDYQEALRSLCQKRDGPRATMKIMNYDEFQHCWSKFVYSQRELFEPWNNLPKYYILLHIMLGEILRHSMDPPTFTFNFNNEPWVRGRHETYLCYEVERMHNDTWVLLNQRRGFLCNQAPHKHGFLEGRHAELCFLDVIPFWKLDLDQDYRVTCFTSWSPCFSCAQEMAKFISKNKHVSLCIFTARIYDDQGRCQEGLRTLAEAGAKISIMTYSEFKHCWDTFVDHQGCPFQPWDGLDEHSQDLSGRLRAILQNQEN

In the case of `CCCCc1ccc2nc(NC(=O)c3nccs3)sc2c1`, the IC50 [1] is reported as 5.4 µM (active), the IC50 [2] is reported as 6.32 µM (active) and the IC50 [3] is reported as 4.4 µM (active). For the same compound, the IC50 [4] was 4.9 µM (active), the IC50 [5] was 5.4 µM (active) and the IC50 [6] was 3.3 µM (active). The IC50 [7] was 4.83 µM (active) and the IC50 [8] was 7.43 µM (active).

In the case of `c1ccc(-c2nc(NCCCn3ccnc3)c3ccccc3n2)cc1`, the IC50 [9] is reported as 13.9 µM (active), the IC50 [10] is reported as 39 µM (inactive) and the AC50 [11] is reported as 8.78 µM (active). For the same compound, the IC50 [12] was 20.1 µM (active) and the AC50 [13] was 11.2 µM (active).

For `CC(C)c1cc(C(=O)N(C2CCCCC2)C2CCCCC2)no1`, the EC50 [14] was > 50 µM (inactive) and the EC50 [15] was > 50 µM (inactive).

For `COc1ccc2oc(C(=O)Nc3nc(-c4ccccn4)cs3)c(C)c2c1`, the IC50 [16] was > 100 µM (inactive), the EC50 [17] was 1.22 µM (active) and the EC50 [18] was 1.52 µM (active). The EC50 [19] was 18.9 µM (active), the IC50 [20] was 34.1 µM (active) and the IC50 [21] was 69.4 µM (active). The EC50 [22] was 0.915 µM (active).

With `COc1ccc(C)cc1Nc1n[n+](-c2ccccc2)c(-c2ccc(SC)cc2)s1` the EC50 [23] was 15.5 µM (active).

For `Cc1c(CNCc2cccc(Br)c2)c(C(=O)O)c(C)n1Cc1ccc(F)cc1`, the IC50 [24] was > 99 µM (inactive) and the IC50 [25] was > 99 µM (inactive).
